Test system: mice with CCl4-induced chronic liver injury
Assay: CCl4-induced chronic liver injury in mice
Assay type: in vivo
Settings: 6 weeks
Procedure: SPF-grade male C57BL/6 mice were randomly divided into 5 groups, 12 mice in each group. The groups were a control group, a model group, a silibinin group (positive control group), a TFFCL low-dose group, and a TFFCL high-dose group. In addition to the control group, mice in the model group, positive control group, TFFCL low-dose group, and TFFCL high-dose group were intraperitoneally injected with 20% CCl4 (CCl4: olive oil=1:4, 2 mL/kg); mice in the control group were intraperitoneally injected with an equal amount of olive oil solution. Each group was injected twice a week for 6 weeks. The silibinin and TFFCL were separately suspended in 0.5% CMC-Na solution. The silibinin group, TFFCL-L group (low-dose), and TFFCL-H group (high-dose) were administered silibinin 100 mg/kg, TFFCL 20 mg/kg, and TFFCL 40 mg/kg by gavage, respectively; while the control group and the model group were intragastrically administered the same amount of 0.5% CMC-Na solution. Each group was given continuous intragastric administration once a day for 6 weeks. During the animal feeding, the body weight of mice was monitored and recorded weekly; 16 h after the last administration in the 6th week, blood was collected from the orbit of the mice, the liver and spleen of the mice were weighed and photographed, and wet weights of the liver and spleen were recorded. The organ index was calculated (organ index=organ mass/body mass×100%).

SMILES: COc1cc(C2Oc3cc([C@H]4Oc5cc(O)cc(O)c5C(=O)[C@@H]4O)ccc3OC2CO)ccc1O (some centres unmarked) [Positive group, silibinin]
- Liver index (silibinin 100 mg/kg by gavage once a day): 4.42 ± 0.30 %
- Spleen index (silibinin 100 mg/kg): 0.35 ± 0.02%
- liver tissue CAT (silibinin 100 mg/kg): 262.23 ± 73.45 U/mg
- liver tissue GSH-PX (silibinin 100 mg/kg): 7.84 ± 3.75 U/mg
- liver tissue MDA (silibinin 100 mg/kg): 1.12 ± 0.28 nmol/mg
- liver tissue SOD (silibinin 100 mg/kg): 9.33 ± 2.47 U/mg
- serum ALT (silibinin 100 mg/kg): 80.58 ± 18.26 U/L
- serum AST (silibinin 100 mg/kg): 226.58 ± 45.39 U/L
- serum IL-1β (silibinin 100 mg/kg): 152.13 ± 30.49 pg/mL
- serum IL-6 (silibinin 100 mg/kg): 81.40 ± 15.12 pg/mL
- serum TNF-α (silibinin 100 mg/kg): 252.32 ± 34.16 pg/mL
